Measurements published in US12133846B2, “Electrophilic androgen receptor (AR) antagonists for AR downregulation and ferroptosis induction in cancer cells” (priority 2019, dated 2024).
Several values for one entry are separate records, joined by “and”; a condition that tells them apart may be missing. Equal values may be shown once.

Columns and labels:
[1] = tested on: RWPE-1 cells; experiment: BSO pretreatment plus 2-63, MTT viability, RWPE-1 cells; conditions: BSO up to 100 μM
Method: Cell viability was then assessed using an MTT assay.
PCa cells (6×10^3 cells/well) were seeded into 96-well plates overnight and then treated with indicated compounds at indicated concentrations and time durations. The MTT (3-(4, 5-Dimethylthiazol-2-yl)-2,5-diphenyltetrazolium bromide) assay was performed according to the standard protocol. Briefly, MTT (0.5 mg/mL) was incubated with cells at 37° C. for 3 hours. Supernatant was removed, followed by the addition of dimethyl DMSO (100 μl). After incubation for 30 minutes at 37° C., absorbance was read at 570 nm on a microplate reader.

[2] = tested on: VCaP cells; experiment: MTT viability assay, VCaP cells; type: cell-based; conditions: Homo sapiens, VCaP; 72 h, full media, MTT; read-out: IC50, viability of VCaP cells
Source text: (§1) Biological Characterization. ITC-ARi hybrid drugs effectively reduce the viability of PCa cells. By using an MTT assay, it was first examined if the newly synthesized hybrid drugs affect the viability of CRPC-relevant PCa cells. PCa VCaP cells naturally express abundant wild type FL AR as well as AR splice variants (e.g., AR-V7). These cells were, therefore, used as one of the cell culture models in this work to investigate the drug-caused viability loss and AR downregulation.

[3] = tested on: 22Rv1 cells; experiment: MTT viability assay, 22Rv1 cells; type: cell-based; conditions: 5 μM, 72 h
Source text: as §1

[4] = tested on: C4-2 cells; experiment: MTT viability assay, C4-2 cells; type: cell-based; conditions: 5 μM, 72 h
Source text: as §1

[5] = tested on: LNCaP and RWPE-1 cells; experiment: MTT viability, PCa LNCaP versus non-cancerous RWPE-1 cells; type: cell-based; conditions: 72 h, 2.5 to 10 μM
Source text: Because of the better selectivity and water solubility of 2-63 over 12b, 2-63 was used for further in vitro characterization and mechanistic studies.

[6] = tested on: AR transcriptional activity in MDA-kb2 cells; experiment: cells; type: cell-based; conditions: DHT 1 nM
Method: MDA-kb2-cell-based ARE luciferase assays were performed to assess the influence of 2-63 and related compounds on AR transcriptional activity. […] Upon androgen stimulation and addition of a luciferase substrate, […], and the intensity is proportional to the extent of AR activation. An agent that either antagonistically competes with DHT for AR binding or reduces the expression of AR diminishes luciferase activity/fluorescence signal in this experimental system. […] 10b (an alcohol) and 11 b (an azide) are synthetic precursors of the ITC hybrid 12b.
Luciferase Assay. […] For all procedures, cells were incubated at CO2 free condition. Steady-Glo® (Promega Corp., Madison, WI) reagent was added to culture media with shaking for 10 min. Samples (100 μL) were transferred to an opaque 96-well white plate, and luminescence was measured using a luminometer.

[7] = target: T1, FL AR and AR-V7 (Homo sapiens, UniProt P10275); experiment: Western blotting of FL AR and AR-V7 in VCaP cells; type: cell-based; conditions: full media, 16 h, 2-63, 12b 5 and 15 μM, Enz 10 μM, SAHA 1 μM
T1 construct: Whole cell lysates were subjected to Western blotting and probed with the indicated antibodies; endogenous in cells; host or cells: VCaP
T1 sequence (P10275 1-920): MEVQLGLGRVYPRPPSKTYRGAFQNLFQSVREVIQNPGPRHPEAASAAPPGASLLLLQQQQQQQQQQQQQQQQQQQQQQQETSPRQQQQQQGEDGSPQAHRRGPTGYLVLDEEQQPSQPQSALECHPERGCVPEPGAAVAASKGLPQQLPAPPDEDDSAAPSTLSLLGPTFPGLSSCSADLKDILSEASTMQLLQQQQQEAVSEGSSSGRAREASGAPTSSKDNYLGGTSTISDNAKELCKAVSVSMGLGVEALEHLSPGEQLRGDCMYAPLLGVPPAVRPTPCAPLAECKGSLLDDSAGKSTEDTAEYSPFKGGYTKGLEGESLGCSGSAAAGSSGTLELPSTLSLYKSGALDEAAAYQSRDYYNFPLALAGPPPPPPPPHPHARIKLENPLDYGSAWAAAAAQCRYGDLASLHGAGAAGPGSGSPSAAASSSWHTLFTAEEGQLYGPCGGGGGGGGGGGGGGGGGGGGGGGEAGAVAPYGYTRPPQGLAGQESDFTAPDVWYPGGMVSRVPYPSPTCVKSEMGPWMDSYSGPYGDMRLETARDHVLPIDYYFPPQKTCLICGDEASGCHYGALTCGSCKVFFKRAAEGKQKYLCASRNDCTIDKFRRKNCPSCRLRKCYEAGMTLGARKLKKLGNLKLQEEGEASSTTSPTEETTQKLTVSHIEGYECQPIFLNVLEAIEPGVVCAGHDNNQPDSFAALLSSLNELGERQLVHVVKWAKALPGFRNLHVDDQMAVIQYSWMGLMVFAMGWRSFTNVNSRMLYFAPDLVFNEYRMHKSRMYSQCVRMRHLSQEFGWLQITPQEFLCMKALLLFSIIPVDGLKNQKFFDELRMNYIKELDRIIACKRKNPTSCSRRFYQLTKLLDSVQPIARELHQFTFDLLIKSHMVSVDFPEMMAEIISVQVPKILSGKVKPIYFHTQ
Method: (§2) Western Blotting. […] Proteins in cell lysates (40 μg) were separated using electrophoresis on SDS-PAGE and transferred onto PVDF (polyvinylidenedifluoride) membranes. Membranes were blocked in 5% fat-free milk followed by incubation with primary antibodies overnight at 4° C., and the secondary horseradish peroxidase-conjugated anti-rabbit or anti-mouse antibodies. The blots were developed in the Enhanced Chemiluminescence mixture and detected by ImageQuant™ LAS 4000 imaging system (GE). Density of protein bonds were calculated and analyzed by using imageJ software downloaded from the National Institute of Health website.

[8] = target: T2, FL AR and AR-V7 (Homo sapiens, UniProt P10275); experiment: Western blotting of FL AR and AR-V7 in VCaP cells; type: cell-based; conditions: full media, 16 h, 2-63, 12b 5 and 15 μM, Enz 10 μM
T2 construct: Whole cell lysates were subjected to Western blotting and probed with the indicated antibodies; endogenous in cells; host or cells: VCaP
T2 sequence (P10275 1-644 isoform P10275-3): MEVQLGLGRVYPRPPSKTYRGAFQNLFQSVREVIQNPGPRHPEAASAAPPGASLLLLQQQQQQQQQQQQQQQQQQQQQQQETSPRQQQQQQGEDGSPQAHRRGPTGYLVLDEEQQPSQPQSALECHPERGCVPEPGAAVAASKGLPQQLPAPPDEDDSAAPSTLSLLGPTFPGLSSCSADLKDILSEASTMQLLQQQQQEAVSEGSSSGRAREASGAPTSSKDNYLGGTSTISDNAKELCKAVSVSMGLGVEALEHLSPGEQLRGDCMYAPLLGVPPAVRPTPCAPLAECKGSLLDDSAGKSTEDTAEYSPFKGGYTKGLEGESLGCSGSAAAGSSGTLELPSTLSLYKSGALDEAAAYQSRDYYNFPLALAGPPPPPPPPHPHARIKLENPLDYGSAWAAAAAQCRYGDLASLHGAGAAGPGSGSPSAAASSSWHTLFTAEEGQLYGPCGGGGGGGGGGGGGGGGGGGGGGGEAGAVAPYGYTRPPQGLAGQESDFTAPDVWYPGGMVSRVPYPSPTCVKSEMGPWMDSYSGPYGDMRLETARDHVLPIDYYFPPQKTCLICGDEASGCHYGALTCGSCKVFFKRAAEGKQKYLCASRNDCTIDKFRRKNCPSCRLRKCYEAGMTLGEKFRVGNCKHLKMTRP
Method: as §2

[9] = tested on: acetylation of α-tubulin and histone H3 (markers for HDAC6 and nuclear HDAC inhibition); experiment: Western blotting of acetylation markers in VCaP cells; type: cell-based; conditions: 16 h, 2-63 and 12b 5 and 15 μM, SAHA 1 μM
Method: as §2

[10] = tested on: Hsp90, Hsp70, HO-1; experiment: Western blotting of Hsp90, Hsp70 and HO-1 in VCaP cells; type: cell-based; conditions: 16 h, 5 and 15 μM
Method: as §2

SMILES | enhancement of the potency of 2-63 by BSO in RWPE-1 cells [1] | IC50 [2] [µM] | relative potency in viability reduction, 22Rv1 cells [3] | relative potency in viability reduction, C4-2 cells [4] | differential anti-proliferative effect, LNCaP vs RWPE-1 cells [5] | AR inhibition at 1 μM relative to Enz, 10b and 11b ([6]; 1 μM) | suppression of DHT-stimulated luciferase activity ([6]; 1-5 μM) | AR inhibition at higher concentrations relative to comparators ([6]; 2.5 and 5 μM) | FL AR expression [7] | AR-V7 expression [8] | histone H3 acetylation [9] | α-tubulin acetylation ([9]; SFN 15 μM) | Hsp70 protein level [10] | Hsp90 protein level [10]
CCCCS(=N)(=O)CCC(N)C(=O)O [BSO, L-buthionine sulfoximine, reference compound] | does not notably enhance |  |  |  |  |  |  |  |  |  |  |  |  | 
CC1(C)C(=O)N(c2ccc(C#N)c(C(F)(F)F)c2)C(=S)N1c1ccc(CCCCCCN=C=S)nc1 [12b, 4-(3-(6-(6-Isothiocyanatohexyl)pyridin-3-yl)-4,4-dimethyl-5-oxo-2-thioxoimidazolidin-1-yl)-2-(trifluoromethyl) benzonitrile] |  | 3.89 | more effective than 12a and 12b>2-63>PEITC-NAC | more effective than 12a and 12b>2-63>PEITC-NAC | almost equally suppressed | less effective | decreased luciferase activity in a dose-dependent manner | similarly with these non-ITC-containing compounds | seemed to be more effective | seemed to be more effective | did not show significant effects | did not show significant effects | significantly induced | did not change
